This is an account of results in US20230167088A1, “1-PYRAZINYLPYRAZOLYL-3-OXYALKYL ACIDS AND THEIR DERIVATIVES, AND THEIR USE FOR CONTROL OF UNDESIRED PLANT GROWTH” (BAYER AKTIENGESELLSCHAFT, priority 2020, published 2023).

Assay [1] relates to POAAN. Nature of the assay: Herbicidal post-emergence action 1b (twin sowing, 1280 g/ha). The format is in vivo, Poa annua. The settings on record: dosage 1280 g/ha, visual rating about 3 weeks after treatment. The method, boiled down:
(§1)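 Visual % activity vs untreated controls, ~3 wk after treatment (100% = dead, 0% = like control). Plants: one mono- plus one dicot weed species per pot, sandy loam, greenhouse; sprayed at one-leaf stage (2–3 wk post-sowing). Aqueous WP/EC, 0.5% additive, 600 L/ha water.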

In assay [2] the test system is DIGSA. The description is as above. The format is in vivo, Digitaria sanguinalis. The settings on record: dosage 1280 g/ha, visual rating about 3 weeks after treatment. On the procedure: (§2) [table] b) Seeds of mono- and dicotyledonous weed plants are placed in plastic pots in sandy loam soil (twin sowing with one species each of mono- or dicotyledonous weed plants per pot), covered with soil and cultivated in a greenhouse under controlled growth conditions. 2 to 3 weeks after sowing, the test plants are treated at the one-leaf stage. The compounds of the invention, formulated in the form of wettable powders (WP) or as emulsion concentrates (EC), are applied to the green parts of the plants as aqueous suspension or emulsion with addition of 0.5% additive at a water application rate equivalent to 600 litres per hectare. After the test plants have been kept in the greenhouse under optimum growth conditions for about 3 weeks, the activity of the preparations is rated visually in comparison to untreated controls. For example, 100% activity=the plants have died, 0% activity=like control plants. Tables A16 to A21 below show the effects of selected compounds of the general formula (I) according to Tables 1 and 2 on various harmful plants and at an application rate corresponding to 1280 g/ha, which were obtained by the experimental procedure mentioned above.

For assay [3], the system named is ECHCG. The assay is described as above. The format is in vivo, Echinochloa crus-galli. The following applies: dosage 1280 g/ha, visual rating about 3 weeks after treatment. On the procedure:
as §2

In assay [4] the test system is MATIN. The assay is described as above. The following applies: dosage 1280 g/ha, visual rating about 3 weeks after treatment. The class given is in vivo, Matricaria inodora. The gist of the method: as §1
Assay [5] deals with STEME. The assay is described as above. The format is in vivo, Stellaria media. The settings on record: dosage 1280 g/ha, visual rating about 3 weeks after treatment. On the procedure: as §2
In assay [6] the test system is POAAN. The experiment in a line: Herbicidal pre-emergence action 2b (doubly sown, 1280 g/ha). The class given is in vivo, Poa annua. The following applies: doubly sown pots, dosage 1280 g/ha, visual scoring after about 3 weeks. The gist of the method: (§3)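 Pre-emergence soil-surface spray (WP/EC formulation, 0.5% additive, 600 L/ha water) onto covered seeds in sandy loam, doubly sown per pot. Greenhouse ~3 wk; % effect scored visually against untreated pots.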

Assay [7] concerns DIGSA. The assay is described as above. The class given is in vivo, Digitaria sanguinalis. The settings on record: doubly sown pots, dosage 1280 g/ha, visual scoring after about 3 weeks. The method, boiled down:
as §3

In assay [8] the test system is ECHCG. The assay is described as above. The class given is in vivo, Echinochloa crus-galli. The settings on record: doubly sown pots, dosage 1280 g/ha, visual scoring after about 3 weeks. The method, boiled down: as §3
In the next assay the test system is AMARE. The description is as above. The class given is in vivo, Amaranthus retroflexus. The settings on record: doubly sown pots, dosage 1280 g/ha, visual scoring after about 3 weeks. The gist of the method: as §3
Assay [9] has as its system MATIN. Described as above. The format is in vivo, Matricaria inodora. The following applies: doubly sown pots, dosage 1280 g/ha, visual scoring after about 3 weeks. The gist of the method: as §3
Assay [10] deals with STEME. Described as above. The settings on record: doubly sown pots, dosage 1280 g/ha, visual scoring after about 3 weeks. The format is in vivo, Stellaria media. The method, boiled down:
as §3

The next assay deals with ABUTH. Nature of the assay: Herbicidal post-emergence action 1b (twin sowing, 1280 g/ha). The settings on record: dosage 1280 g/ha, visual rating about 3 weeks after treatment. The class given is in vivo, Abutilon theophrasti. On the procedure: as §2

As to `CC(C)=NOC(=O)COc1nn(-c2cnccn2)c(-c2ccc(F)nc2)c1Br` [Example I-69], in the assay with POAAN [1], the “Post-emergence action at 1280 g/ha against POAAN in %” value is recorded as 90%. In addition, in the assay on DIGSA [2], the “Post-emergence action at 1280 g/ha against DIGSA in %” value is 90%. The “Post-emergence action at 1280 g/ha against ECHCG in %” value in the assay on ECHCG [3] is reported as 90%. The “Post-emergence action at 1280 g/ha against MATIN in %” value with MATIN [4] was 90%. Besides, in the assay on STEME [5], the “Post-emergence action at 1280 g/ha against STEME in %” value stood at 90%. In addition, the “Pre-emergence action at 1280 g/ha against POAAN in %” value with POAAN [6] is 100%. In the assay on DIGSA [7], the “Pre-emergence action at 1280 g/ha against DIGSA in %” value came to 100%. Besides, the “Pre-emergence action at 1280 g/ha against ECHCG in %” value with ECHCG [8] is 100%. For the same compound, the “Pre-emergence action at 1280 g/ha against AMARE in %” value with AMARE is reported as 100%. In the assay with MATIN [9], the “Pre-emergence action at 1280 g/ha against MATIN in %” value was determined as 100%. In addition, in the assay on STEME [10], the “Pre-emergence action at 1280 g/ha against STEME in %” value was 100%.

Take `COC(=O)[C@H](C)Oc1nn(-c2cnccn2)c(-c2ccc(F)nc2)c1Br` [Example I-18]: in the assay with POAAN [1], the “Post-emergence action at 1280 g/ha against POAAN in %” value is on record as 100%. Moreover, the “Post-emergence action at 1280 g/ha against DIGSA in %” value in the assay with DIGSA [2] was 100%. Further, the “Post-emergence action at 1280 g/ha against ABUTH in %” value in the assay with ABUTH is listed as 90%. Further, in the assay on MATIN [4], the “Post-emergence action at 1280 g/ha against MATIN in %” value amounted to 90%. In addition, in the assay on STEME [5], the “Post-emergence action at 1280 g/ha against STEME in %” value amounted to 100%. Moreover, in the assay on POAAN [6], the “Pre-emergence action at 1280 g/ha against POAAN in %” value worked out at 100%. Also, the “Pre-emergence action at 1280 g/ha against DIGSA in %” value in the assay on DIGSA [7] amounted to 100%. Also, the “Pre-emergence action at 1280 g/ha against ECHCG in %” value in the assay with ECHCG [8] amounted to 100%. For the same compound, in the assay on AMARE, the “Pre-emergence action at 1280 g/ha against AMARE in %” value is recorded as 100%. Moreover, the “Pre-emergence action at 1280 g/ha against MATIN in %” value in the assay on MATIN [9] is recorded as 90%. For the same compound, the “Pre-emergence action at 1280 g/ha against STEME in %” value with STEME [10] was 100%.

With `O=C(O)COc1nn(-c2nccnc2Cl)c(-c2ccc(F)nc2)c1Br` [Example I-73], the “Post-emergence action at 1280 g/ha against POAAN in %” value with POAAN [1] was 100%. In addition, in the assay on ECHCG [3], the “Post-emergence action at 1280 g/ha against ECHCG in %” value turned out to be 100%. Moreover, the “Post-emergence action at 1280 g/ha against ABUTH in %” value with ABUTH is 90%. The “Post-emergence action at 1280 g/ha against MATIN in %” value with MATIN [4] came out at 100%. For the same compound, the “Pre-emergence action at 1280 g/ha against POAAN in %” value in the assay on POAAN [6] is 100%. Moreover, the “Pre-emergence action at 1280 g/ha against ECHCG in %” value with ECHCG [8] amounted to 100%. Also, the “Pre-emergence action at 1280 g/ha against AMARE in %” value in the assay on AMARE is reported as 100%. The “Pre-emergence action at 1280 g/ha against MATIN in %” value in the assay on MATIN [9] was 100%. For the same compound, in the assay on STEME [10], the “Pre-emergence action at 1280 g/ha against STEME in %” value is given as 100%.

For `CCOC(=O)COc1nn(-c2cnccn2)c(-c2ccc(F)nc2)c1C(F)(F)F` [Example I-66], the “Post-emergence action at 1280 g/ha against POAAN in %” value in the assay on POAAN [1] was determined as 90%. Moreover, the “Post-emergence action at 1280 g/ha against ABUTH in %” value in the assay on ABUTH amounted to 90%. For the same compound, the “Post-emergence action at 1280 g/ha against MATIN in %” value in the assay on MATIN [4] is listed as 90%. In addition, the “Pre-emergence action at 1280 g/ha against POAAN in %” value with POAAN [6] amounted to 100%. Moreover, the “Pre-emergence action at 1280 g/ha against DIGSA in %” value with DIGSA [7] is given as 100%. The “Pre-emergence action at 1280 g/ha against ECHCG in %” value with ECHCG [8] is on record as 90%. Moreover, the “Pre-emergence action at 1280 g/ha against AMARE in %” value in the assay with AMARE is 100%. Moreover, the “Pre-emergence action at 1280 g/ha against MATIN in %” value in the assay on MATIN [9] was 100%. The “Pre-emergence action at 1280 g/ha against STEME in %” value in the assay on STEME [10] is recorded as 100%.
